From patent US20130295055A1 (priority 2011, published 2013) come the findings set out here.

Read-outs that look alike come from different tables or passages of the source.

Holding throughout (assay type): cell-based
For assay [1], the system named is Avian influenza virus AIV0028 (H9N2). To be noted: Soft Water (Distilled Water).
The subject of assay [2] is Standard strain Listeria. As to the kind of experiment: Sterilization effectiveness on Listeria (number of bacteria over time).
In assay [3] the test system is Standard strain E. coli. Put plainly: Sterilization effectiveness on E. coli (number of bacteria over time).
Assay [4] deals with Salmonella typhimurium ATCC 19585 and Salmonella typhimurium ATCC 43174. Put plainly: Sterilization effectiveness on Salmonella (number of bacteria over time). The procedure:
Inhibitory effect was evaluated by measuring total numbers of bacteria over time, and the number of bacteria was expressed as log10 CFU/ml.
Standard strains Salmonella typhimurium ATCC 19585 and Salmonella typhimurium ATCC 43174 were purchased from American Type culture collection, and were incubated in Rappaport-Vassiliadis Soya Peptone Broth (CM0866, Oxoid, the United Kingdom) in a bacterial incubator at 37° C. for 24 hours. Total number of bacteria was measured by diluting strains at stationary phase to 6 to 7 log(cfu/mL).
0.2% peptone water was used as a diluent, and the smeared plate medium was incubated in a 37° C. bacterial incubator for 24 hours, and the number of white single colony was counted. Evaluation was carried out with the average of triplicate.
Malic acid was added to be 0.5%, 1.0%, 2.0%, respectively, to the prepared single colony of Salmonella, and the inhibitory effect on Salmonella over time was examined.

On to `O=C(O)CC(O)(CC(=O)O)C(=O)O` [Citric Acid, citric acid], for which the “Avian Influenza Titer” value is 1.25 log 10 in assay [1] (Citric Acid Concentration 2%, Dilution Rate 1:12.5); 2.00 log 10 in assay [1] (Citric Acid Concentration 2%, Dilution Rate 1:25); 2.00 log 10 in assay [1] (Citric Acid Concentration 4%, Dilution Rate 1:50); 2.00 log 10 in assay [1] (Citric Acid Concentration 6%, Dilution Rate 1:50); 0.75 log 10 in assay [1] (Citric Acid Concentration 8%, Dilution Rate 1:50).

For `O=C(O)CC(O)(CC(=O)O)C(=O)O` [SAL + BROTH (CA 0.5%), citric acid], the “number of Listeria bacteria” value is on record as 8.62 log10 CFU/ml in assay [2] (0 min); 8.52 log10 CFU/ml in assay [2] (10 min, listed as LIS + BROTH (CA 0.5%)); 8.48 log10 CFU/ml in assay [2] (20 min, listed as LIS + BROTH (CA 0.5%)); 8.51 log10 CFU/ml in assay [2] (30 min, listed as LIS + BROTH (CA 0.5%)); 8.39 log10 CFU/ml in assay [2] (60 min, listed as LIS + BROTH (CA 0.5%)). Also, the “number of E. coli bacteria” value in assay [3] (0 min) stood at 8.72 log10 CFU/ml; in assay [3] (10 min, listed as EC + Broth (CA 0.5%)), 8.70 log10 CFU/ml; in assay [3] (20 min, listed as EC + Broth (CA 0.5%)), 8.64 log10 CFU/ml; in assay [3] (30 min, listed as EC + Broth (CA 0.5%)), 8.66 log10 CFU/ml; in assay [3] (60 min, listed as EC + Broth (CA 0.5%)) it was 8.67 log10 CFU/ml.

Consider `O=C(O)CC(O)(CC(=O)O)C(=O)O` [SAL + BROTH (CA 1.0%), citric acid], for which the “number of Listeria bacteria” value in assay [2] (0 min) came out at 8.62 log10 CFU/ml; in assay [2] (10 min, listed as LIS + BROTH (CA 1.0%)) it was 8.47 log10 CFU/ml; in assay [2] (20 min, listed as LIS + BROTH (CA 1.0%)), 8.48 log10 CFU/ml; in assay [2] (30 min, listed as LIS + BROTH (CA 1.0%)) it was 8.41 log10 CFU/ml; in assay [2] (60 min, listed as LIS + BROTH (CA 1.0%)), 8.42 log10 CFU/ml. Also, the “number of E. coli bacteria” value is on record as 8.72 log10 CFU/ml in assay [3] (0 min); 8.71 log10 CFU/ml in assay [3] (10 min, listed as EC + Broth (CA 1.0%)); 8.65 log10 CFU/ml in assay [3] (20 min, listed as EC + Broth (CA 1.0%)); 8.70 log10 CFU/ml in assay [3] (30 min, listed as EC + Broth (CA 1.0%)); 8.71 log10 CFU/ml in assay [3] (60 min, listed as EC + Broth (CA 1.0%)).

For `O=C(O)CC(O)(CC(=O)O)C(=O)O` [SAL + BROTH (CA 2.0%), citric acid], the “number of Listeria bacteria” value in assay [2] (0 min) stood at 8.62 log10 CFU/ml; in assay [2] (10 min, listed as LIS + BROTH (CA 2.0%)), 8.37 log10 CFU/ml; in assay [2] (20 min, listed as LIS + BROTH (CA 2.0%)), 8.37 log10 CFU/ml; in assay [2] (30 min, listed as LIS + BROTH (CA 2.0%)), 8.38 log10 CFU/ml; in assay [2] (60 min, listed as LIS + BROTH (CA 2.0%)) it was 8.40 log10 CFU/ml. For the same molecule, the “number of E. coli bacteria” value in assay [3] (0 min) turned out to be 8.72 log10 CFU/ml; in assay [3] (10 min, listed as EC + Broth (CA 2.0%)), 8.71 log10 CFU/ml; in assay [3] (20 min, listed as EC + Broth (CA 2.0%)) it was 8.67 log10 CFU/ml; in assay [3] (30 min, listed as EC + Broth (CA 2.0%)) it was 8.65 log10 CFU/ml; in assay [3] (60 min, listed as EC + Broth (CA 2.0%)), 8.61 log10 CFU/ml.

For `O=C(O)CC(O)C(=O)O` (centres unmarked) [SAL + BROTH (MA 0.5%), malic acid], the “number of Listeria bacteria” value was found to be 8.67 log10 CFU/ml in assay [2] (0 min); 8.55 log10 CFU/ml in assay [2] (10 min, listed as LIS + BROTH (MA 0.5%)); 8.61 log10 CFU/ml in assay [2] (20 min, listed as LIS + BROTH (MA 0.5%)); 8.56 log10 CFU/ml in assay [2] (30 min, listed as LIS + BROTH (MA 0.5%)); 8.58 log10 CFU/ml in assay [2] (60 min, listed as LIS + BROTH (MA 0.5%)). Moreover, the “number of Salmonella bacteria” value is recorded as 9.02 log10 CFU/ml in assay [4] (0 min); 9.04 log10 CFU/ml in assay [4] (10 min); 9.05 log10 CFU/ml in assay [4] (20 min); 9.04 log10 CFU/ml in assay [4] (30 min); 9.09 log10 CFU/ml in assay [4] (60 min). The “number of E. coli bacteria” value was 8.61 log10 CFU/ml in assay [3] (0 min); 8.67 log10 CFU/ml in assay [3] (10 min, listed as EC + Broth (MA 0.5%)); 8.66 log10 CFU/ml in assay [3] (20 min, listed as EC + Broth (MA 0.5%)); 8.86 log10 CFU/ml in assay [3] (30 min, listed as EC + Broth (MA 0.5%)); 8.79 log10 CFU/ml in assay [3] (60 min, listed as EC + Broth (MA 0.5%)).

Consider `O=C(O)CC(O)C(=O)O` (centres unmarked) [SAL + BROTH (MA 1.0%), malic acid], for which the “number of Listeria bacteria” value in assay [2] (0 min) worked out at 8.67 log10 CFU/ml; in assay [2] (10 min, listed as LIS + BROTH(MA 1.0%)), 8.69 log10 CFU/ml; in assay [2] (20 min, listed as LIS + BROTH(MA 1.0%)), 8.60 log10 CFU/ml; in assay [2] (30 min, listed as LIS + BROTH(MA 1.0%)), 8.60 log10 CFU/ml; in assay [2] (60 min, listed as LIS + BROTH(MA 1.0%)), 8.59 log10 CFU/ml. Further, the “number of Salmonella bacteria” value is recorded as 9.02 log10 CFU/ml in assay [4] (0 min); 9.03 log10 CFU/ml in assay [4] (10 min); 9.04 log10 CFU/ml in assay [4] (20 min); 9.04 log10 CFU/ml in assay [4] (30 min); 8.88 log10 CFU/ml in assay [4] (60 min). Further, the “number of E. coli bacteria” value in assay [3] (0 min) was 8.61 log10 CFU/ml; in assay [3] (10 min, listed as EC + Broth (MA 1.0%)), 8.78 log10 CFU/ml; in assay [3] (20 min, listed as EC + Broth (MA 1.0%)), 8.74 log10 CFU/ml; in assay [3] (30 min, listed as EC + Broth (MA 1.0%)) it was 8.77 log10 CFU/ml; in assay [3] (60 min, listed as EC + Broth (MA 1.0%)), 8.94 log10 CFU/ml.

Regarding `O=C(O)CC(O)C(=O)O` (centres unmarked) [SAL + BROTH (MA 2.0%), malic acid], the “number of Listeria bacteria” value in assay [2] (0 min) was 8.67 log10 CFU/ml; in assay [2] (10 min, listed as LIS + BROTH(MA 2.0%)), 8.51 log10 CFU/ml; in assay [2] (20 min, listed as LIS + BROTH(MA 2.0%)), 8.62 log10 CFU/ml; in assay [2] (30 min, listed as LIS + BROTH(MA 2.0%)) it was 8.55 log10 CFU/ml; in assay [2] (60 min, listed as LIS + BROTH(MA 2.0%)), 8.61 log10 CFU/ml. For the same molecule, the “number of Salmonella bacteria” value is listed as 9.02 log10 CFU/ml in assay [4] (0 min); 8.88 log10 CFU/ml in assay [4] (10 min); 8.73 log10 CFU/ml in assay [4] (20 min); 8.63 log10 CFU/ml in assay [4] (30 min); 7.50 log10 CFU/ml in assay [4] (60 min). Also, the “number of E. coli bacteria” value in assay [3] (0 min) is given as 8.61 log10 CFU/ml; in assay [3] (10 min, listed as EC + Broth (MA 2.0%)), 8.69 log10 CFU/ml; in assay [3] (20 min, listed as EC + Broth (MA 2.0%)), 8.68 log10 CFU/ml; in assay [3] (30 min, listed as EC + Broth (MA 2.0%)), 8.79 log10 CFU/ml; in assay [3] (60 min, listed as EC + Broth (MA 2.0%)), 8.63 log10 CFU/ml.
